Test: Compound was tested for its binding affinity at Thromboxane A2/ Prostaglandin H2 receptor by measuring its ability to displace [3H]U-46619 from guinea pig platelets

SMILES	Ki [nM]
Cc1cc2ncn(CCC3c4ccccc4COc4ccc(C(=O)O)cc43)c2cc1C (centres undefined)	18
O=C(O)c1ccc2c(c1)/C(=C/Cn1cnc3ccc(C(O)c4ccccc4)cc31)c1ccccc1CO2 (centres undefined)	17
O=C(O)c1ccc2c(c1)/C(=C/Cn1cnc3ccc(Cl)cc31)c1ccccc1CO2	15
O=C(O)c1ccc2c(c1)/C(=C\Cn1cnc3ccccc31)c1ccccc1CO2	15
COc1cc(OC)c2ncn(C/C=C3\c4ccccc4COc4ccc(C(=O)O)cc43)c2c1	88
Cc1cc2ncn(C/C=C3\c4cc(C(=O)O)ccc4COc4ccccc43)c2cc1C	1300
Cc1cc2ncn(C/C=C3\c4ccccc4COc4ccc(CC(=O)O)cc43)c2cc1C	63
O=C(O)c1ccc2c(c1)/C(=C/Cn1cnc3cc(F)ccc31)c1ccccc1CO2	8.3
COc1cc(OC)c2c(c1)ncn2C/C=C1\c2ccccc2COc2ccc(C(=O)O)cc21	6.1
O=C(O)c1ccc2c(c1)/C(=C/Cn1cnc3cc(C(=O)O)ccc31)c1ccccc1CO2	30
O=C(O)c1ccc2c(c1)/C(=C/Cn1cnc(-c3ccccc3)c1-c1ccccc1)c1ccccc1CO2	164
Cc1cccc2c1ncn2C/C=C1\c2ccccc2COc2ccc(C(=O)O)cc21	17
COc1ccc2ncn(C/C=C3\c4ccccc4COc4ccc(C(=O)O)cc43)c2c1	12
Cc1ccc2c(c1)ncn2C/C=C1\c2ccccc2COc2ccc(C(=O)O)cc21	15
O=C(O)c1ccc2c(c1)/C(=C/CNS(=O)(=O)c1ccccc1)c1ccccc1CO2	11
Cc1ccc2ncn(C/C=C3\c4ccccc4COc4ccc(C(=O)O)cc43)c2c1	23
Cc1cc2ncn(C/C=C3\c4ccccc4COc4cc(C(=O)O)ccc43)c2cc1C	1800
O=C(O)c1ccc2c(c1)/C(=C/Cn1cnc3cc(C(O)c4ccccc4)ccc31)c1ccccc1CO2 (centres undefined)	6.1
O=C(O)c1ccc2c(c1)/C(=C/Cn1cnc3cc4ccccc4cc31)c1ccccc1CO2	280
Cc1cc2ncn(C/C=C3/c4ccccc4COc4ccc(C(=O)O)cc43)c2cc1C	64

Now from value to molecule:

Ki [nM]	SMILES
1.8	O=C(O)c1ccc2c(c1)/C(=C/Cn1cnc3cc([N+](=O)[O-])ccc31)c1ccccc1CO2
6	O=C(O)c1ccc2c(c1)/C(=C/Cn1cnc3cc(Cl)ccc31)c1ccccc1CO2
2.2	O=C(O)c1ccc2c(c1)/C(=C/Cn1cnc3cc(C(F)(F)F)ccc31)c1ccccc1CO2
2.7	O=C(O)c1ccc2c(c1)/C(=C/Cn1cnc3cc4c(cc31)OCO4)c1ccccc1CO2
0.91	O=C(O)c1ccc2c(c1)/C(=C/Cn1cnc3cc(C(=O)NCc4ccccc4)ccc31)c1ccccc1CO2
3.2	COc1ccc2c(c1)ncn2C/C=C1\c2ccccc2COc2ccc(C(=O)O)cc21
3.4	COc1cc2ncn(C/C=C3\c4ccccc4COc4ccc(C(=O)O)cc43)c2cc1OC
3.6	Cc1ccc2c(ncn2C/C=C2\c3ccccc3COc3ccc(C(=O)O)cc32)c1C
2.7	Cc1cc2ncn(C/C=C3\c4ccccc4COc4ccc(C(=O)O)cc43)c2cc1C [11-[2-(5,6-Dimethyl-benzoimidazol-1-yl)-ethylidene]-6,11-dihydro-dibenzo[b,e]oxepine-2-carboxylic acid (0.5H2O)]
